Reference: patent publication US9232799B2, “N-[(het)arylethyl)] pyrazole(thio)carboxamides and their heterosubstituted analogues” (BAYER INTELLECTUAL PROPERTY GMBH, priority 2010, dated 2016)
“And” between values parts separate entries of the source, which are not always exact repeats. Equal values may be shown once.

Columns and labels:
Sphaerotheca fuliginea = test: In vivo preventive test on Sphaerotheca fuliginea (cucumber); conditions: 500 ppm of active ingredient, evaluated 7 days after inoculation
From the text: One day after this treatment, the plants are inoculated with an aqueous spore suspension of Sphaerotheca fuliginea.

Alternaria solani = test: In vivo preventive test on Alternaria solani (tomato); conditions: 500 ppm of active ingredient, evaluated 7 days after inoculation
From the text: One day after this treatment, the plants are inoculated with an aqueous spore suspension of Alternaria solani.

Pyrenophora teres = test: In vivo preventive test on Pyrenophora teres (barley); conditions: 500 ppm of active ingredient, evaluated 7-9 days after inoculation
From the text: One day after this treatment, the plants are inoculated with an aqueous spore suspension of Pyrenophora teres.

Venturia inaequalis = test: In vivo preventive test on Venturia inaequalis (apple scab); conditions: 100 ppm of active ingredient, evaluated 10 days after inoculation
Septoria tritici = test: In vivo preventive test on Septoria tritici (wheat); conditions: 500 ppm of active ingredient, evaluated 21 days after inoculation
From the text: (§1) To test for preventive activity, young plants are sprayed with the preparation of active compound or active compound combination at the stated rate of application.

[1] = tested on: Blumeria graminis f.sp. hordei; test: In vivo preventive test on Blumeria graminis (barley); conditions: 500 ppm of active ingredient, evaluated 7 days after inoculation
From the text: as §1

Leptosphaeria nodorum = test: In vivo preventive test on Leptosphaeria nodorum (wheat); conditions: 500 ppm of active ingredient, evaluated 7-9 days after inoculation
From the text: One day after this treatment, the plants are inoculated with an aqueous spore suspension of Leptosphaeria nodorum.

Botrytis cinerea = test: In vivo preventive test on Botrytis cinerea (beans)
From the text: To test for preventive activity, young plants are sprayed with the preparation of active compound. After the spray coating has dried on, 2 small pieces of agar covered with growth of Botrytis cinerea are placed on each leaf.

aflatoxines production = test: microbe, parasite or virus in culture; type: cell-based, Aspergillus parasiticus; conditions: 50 μM
Fusarium graminearum = test: microbe, parasite or virus in culture; type: cell-based; conditions: 50 μM
[2] = tested on: Fusarium nivale (var. majus); test: In vivo curative test on Fusarium nivale (wheat); conditions: 500 ppm of active ingredient, evaluated 5 days after inoculation
[3] = logP by HPLC on reversed-phase column (C 18), EEC Directive 79/831 Annex V.A8; type: physicochemical
Procedure: In table 1, the logP values were determined in accordance with EEC Directive 79/831 Annex V.A8 by HPLC (High Performance Liquid Chromatography) on a reversed-phase column (C 18), using the method described below: Temperature: 40° C.; […]

[4] = tested on: Fusarium nivale (var. majus); test: In vivo preventive test on Fusarium nivale (wheat); conditions: 500 ppm of active ingredient, evaluated 5 days after inoculation
From the text: as §1

Uromyces appendiculatus = test: In vivo preventive test on Uromyces appendiculatus (beans); conditions: 100 ppm of active ingredient, evaluated 10 days after inoculation
Puccinia triticina = test: In vivo preventive test on Puccinia triticina (wheat); conditions: evaluated 8 days after inoculation; for Efficacy: dose 500 ppm of active ingredient
Phakopsora pachyrhizi = test: In vivo protective test on Phakopsora pachyrhizi (soybeans); conditions: dose 250 ppm of active ingredient, evaluated 11 days after inoculation
[5] = preventive, beans, 100 ppm of active ingredient, lesion size 2 days after inoculation

Row | Structure (SMILES) | Efficacy (Sphaerotheca fuliginea) | Efficacy (Alternaria solani) | Efficacy (Pyrenophora teres) | Efficacy (Venturia inaequalis) | Efficacy (Septoria tritici) | Efficacy [1] | Efficacy (Leptosphaeria nodorum) | Efficacy (Botrytis cinerea; [5]) | % Inhibition of Aflatoxin at 50 μM (aflatoxines production) | % Inhibition of fungal growth at 50 μM (Fusarium graminearum) | Efficacy [2] | logP [3] | Efficacy [4] | Efficacy (Uromyces appendiculatus) | Efficacy (Puccinia triticina) | Efficacy (Phakopsora pachyrhizi) | Efficacy (Botrytis cinerea; dose 500 ppm of active ingredient, table K10) | Efficacy (Botrytis cinerea; preventive, beans, 500 ppm of active ingredient, lesion size 2 days after inoculation) | Efficacy (protection) (Puccinia triticina; preventive, 500 ppm of active ingredient)
1 | CCOC(c1ccc(Cl)cc1Cl)C(C)NC(=O)c1c(C(F)F)nn(C)c1F (mixture of isomers) [Example 83] | 100% | 100% | 100% | 100% | 100% | 100% | 90% | 98% | 100% | 100% | 100% |  |  |  |  |  |  |  | 
2 | CCC(NC(=O)c1c(C(F)F)nn(C)c1Cl)C(OC)c1ccc(Cl)cc1Cl (mixture of isomers) [Example 76] | 93% | 95% | 100% | 100% | 100% | 100% |  | 72% | 100% | 100% | 86% |  |  |  |  |  |  |  | 
3 | Cn1nc(C(F)F)c(C(=O)N(C[Si](C)(C)c2cccc(Cl)c2)C2CC2)c1F [Example 235] | 95% | 100% | 100% | 100% | 100% | 94% | 100% | 99% | 100% | 100% |  | 4.18 | 100% | 100% | 100% | 100% |  |  | 
4 | Cn1nc(C(F)F)c(C(=O)N(C[Si](C)(C)c2cc(Cl)cc(Cl)c2)C2CC2)c1F [Example 242] |  | 100% | 100% | 100% | 100% | 100% | 100% | 100% | 100% | 100% |  | 4.78 | 83% | 100% | 100% | 99% | 100% | total protection | 
5 | Cn1nc(C(F)F)c(C(=O)N(C[Si](C)(C)c2ccc(Cl)cc2Cl)C2CC2)c1F [Example 238] | 98% | 94% | 100% | 100% | 100% | 100% | 100% | 100% | 100% | 100% |  | 4.78 | 83% | 100% | 100% | 85% |  |  | 
6 | CCOC(c1ccc(Cl)cc1Cl)C(C)NC(=O)c1c(C(F)F)nn(C)c1Cl (mixture of isomers) [Example 82] | 95% | 95% | 100% | 100% | 100% |  |  | 98% | 100% | 100% | 100% |  |  |  |  |  |  |  | 
7 | CC(Cc1c(F)cccc1F)N(C(=O)c1c(C(F)F)nn(C)c1F)C1CC1 (stereo not shown) [Example 26] | 86% | 100% | 100% |  | 100% | 100% | 95% |  | 100% | 99% | 100% | 3.42 |  |  | 90% |  |  |  | 
8 | COC(CNC(=O)c1c(C(F)F)nn(C)c1Cl)c1ccc(Cl)cc1Cl (stereo not shown) [Example 74] | 75% |  | 95% | 100% | 100% | 100% |  | 93% | 100% | 100% | 100% | 3.48 |  |  |  |  |  |  | 
9 | Cn1nc(C(F)F)c(C(=O)N(C[Si](C)(C)c2ccccc2Cl)C2CC2)c1F [Example 231] | 100% | 94% | 100% | 99% | 100% | 100% | 100% | 99% | 100% | 100% |  | 4.13 | 83% | 100% | 100% | 80% |  |  | 
10 | COC(c1cc(Cl)cc(Cl)c1)C(C)NC(=O)c1c(C(F)F)nn(C)c1Cl (mixture of isomers) [Example 108] |  | 90% | 100% | 100% | 100% |  |  |  | 100% | 100% | 100% |  |  | 100% | 100% |  |  |  | 
11 | Cn1nc(C(F)F)c(C(=O)N(C2CC2)C2CCCC2c2ccc(Cl)cc2Cl)c1F (stereo not shown) [Example 211] | 100% | 100% | 100% | 100% | 100% | 100% | 95% | 100% | 100% | 100% |  | 4.67 | 100% | 100% | 100% and 98% | 80% |  |  | greater than 95%
12 | COC(c1cc(Cl)cc(Cl)c1)C(C)NC(=O)c1c(C(F)F)nn(C)c1F (mixture of isomers) [Example 109] | 85% | 95% | 100% | 99% | 100% | 100% |  |  | 100% | 100% | 100% |  |  |  |  |  |  |  | 
13 | CC(Cc1ccc(Cl)cc1Cl)NC(=S)c1c(C(F)F)nn(C)c1F (stereo not shown) [Example 70] | 98% | 95% | 100% | 100% |  | 100% | 78% | 100% | 100% | 100% | 92% | 4.16 |  | 75% |  |  |  |  | 
14 | CCC(NC(=O)c1c(C(F)F)nn(C)c1F)C(OC)c1ccc(Cl)cc1Cl (stereo not shown) [Example 77] | 95% | 100% | 80% | 100% | 100% | 100% | 95% | 97% | 100% | 100% | 100% | 3.94 |  |  |  |  |  |  | 
15 | CC(CN(C(=O)c1c(C(F)F)nn(C)c1F)C1CC1)c1ccccc1 (stereo not shown) [Example 13] |  | 95% | 100% |  | 93% | 100% | 100% |  | 100% | 100% | 93% | 3.17 |  |  |  |  |  |  | 
16 | Cn1nc(C(F)F)c(C(=O)N(CCc2ccccc2)C2CC2)c1F [Example 11] | 83% | 95% | 100% |  | 100% | 100% | 95% |  | 100% | 100% | 100% | 2.88 |  |  |  |  |  |  | 
17 | COC(CNC(=O)c1c(C(F)F)nn(C)c1F)c1ccc(Cl)cc1Cl (stereo not shown) [Example 75] | 80% |  | 100% | 95% | 100% | 100% |  | 95% | 100% | 100% | 86% | 3.25 |  |  |  |  |  |  | 
